Structures can show the parent of a compound that is named as a salt.

In the first assay the target is T1, IRAK4 (Homo sapiens, UniProt Q9NWZ3).
T1 sequence (Q9NWZ3 1-460): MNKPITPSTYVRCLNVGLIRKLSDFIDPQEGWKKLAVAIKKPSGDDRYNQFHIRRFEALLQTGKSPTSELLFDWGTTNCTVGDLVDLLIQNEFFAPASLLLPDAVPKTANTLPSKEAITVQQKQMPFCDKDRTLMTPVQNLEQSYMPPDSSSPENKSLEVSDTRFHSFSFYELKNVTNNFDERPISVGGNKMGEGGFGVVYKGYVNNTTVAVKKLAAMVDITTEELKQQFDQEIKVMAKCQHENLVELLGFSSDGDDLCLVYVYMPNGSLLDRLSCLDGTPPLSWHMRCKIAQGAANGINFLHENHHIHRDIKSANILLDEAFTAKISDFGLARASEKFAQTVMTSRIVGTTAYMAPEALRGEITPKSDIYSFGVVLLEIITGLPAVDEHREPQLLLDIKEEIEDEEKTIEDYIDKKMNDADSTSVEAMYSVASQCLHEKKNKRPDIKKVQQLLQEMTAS
The assay can be described thus: biochemical.
Details: not given
In the case of `CC(C)Oc1cc2nc([C@@]34CC[C@@](C)(C3)OC4)cn2cc1C(=O)Nc1cc(F)n(C)n1` (single isomer, unassigned) [Example 603], the IC50 came out at 0.0053 µM.

`COc1cnc2c(NC(=O)c3cn4cc(C56COC(C)(C5)C6)nc4c(F)c3OC(C)C)cnn2c1` [Example 407, 8-Fluoro-7-isopropoxy-N-(6-methoxypyrazolo[1,5-a]pyrimidin-3-yl)-2-(1-methyl-2-oxabicyclo[2.1.1]hexan-4-yl)imidazo[1,2-a]pyridine-6-carboxamide]: half-maximal inhibition (IC50) required 0.0052 µM. On the same count and under the same terms, as for `COc1ncccc1NC(=O)c1cn2cc([C@]34CC[C@](C)(C3)OC4)nc2c(OC)n1` (single isomer, unassigned) [Example 586], the figure is 0.002 µM; as for `CCOc1nc(C(=O)Nc2cccc(C(F)F)n2)cn2cc(C34COC(C)(C3)C4)nc12` [Example 226], 0.0024 µM; as for `CC12CCC(c3cn4cc(C(=O)Nc5cnn6cc(F)cnc56)c(OC5CC5)cc4n3)(CO1)C2` (stereo not shown) [Example 556], 0.0005 µM.

For the molecule `CCOc1cc2nc([C@H]3C[C@H]3F)cn2cc1C(=O)Nc1cccc(OC)n1` [Example 79], it took 0.0126 µM to reach half-maximal inhibition (IC50). Compared with the last molecule, the IC50 is about 25-fold higher. Same read-out and setting: as for `CC12CC(c3cn4cc(C(=O)Nc5cccn(C(F)F)c5=O)c(OC5CCOCC5)cc4n3)(CO1)C2` [Example 454, N-(1-(difluoromethyl)-2-oxo-1,2-dihydropyridin-3-yl)-2-(1-methyl-2-oxabicyclo[2.1.1]hexan-4-yl)-7-((tetrahydro-2H-pyran-4-yl)oxy)imidazo[1,2-a]pyridine-6-carboxamide], the figure is 0.0024 µM. The same measure, in the same setting: as for `Cn1ccc(NC(=O)c2cn3cc([C@@]45CC[C@@](C)(C4)OC5)nc3cc2OC2CCC2)n1` (single isomer, unassigned) [Example 610], the figure is 0.0008 µM. In turn, `COc1cc2nc(C3CCOCC3)cn2cc1C(=O)Nc1cccc(F)c1F` [Example 113] yielded a concentration for half-maximal inhibition (IC50) of 0.0357 µM. `Cn1ccc(NC(=O)c2cn3cc([C@@]45CC[C@@](C)(C4)OC5)nc3cc2OC2CCCC2)n1` (single isomer, unassigned) [Example 634] returned a half-maximal inhibitory concentration (IC50) of 0.0023 µM.

As for `CCc1ncsc1NC(=O)c1cn2cc(C3CCOCC3)nc2cc1OC` [Example 104], it took 0.0476 µM to reach half-maximal inhibition (IC50). Still for that read-out and setting: as for `CCOc1nc(C(=O)Nc2cccc(C3CC3)n2)cn2cc(C34COC(C)(C3)C4)nc12` [Example 493, N-(6-cyclopropylpyridin-2-yl)-8-ethoxy-2-(1-methyl-2-oxabicyclo[2.1.1]hexan-4-yl)imidazo[1,2-a]pyrazine-6-carboxamide], the figure is 0.0032 µM; as for `CC(C)Oc1nc2nc(C34COC(C)(C3)C4)cn2cc1C(=O)Nc1cccc(C(F)F)c1` [Example 386, N-(3-(difluoromethyl)phenyl)-7-isopropoxy-2-(1-methyl-2-oxabicyclo[2.1.1]hexan-4-yl)imidazo[1,2-a]pyrimidine-6-carboxamide], 0.0012 µM. Same read-out and setting: as for `CC(C)Oc1nc2nc(C34COC(C)(C3)C4)cn2cc1C(=O)Nc1nc(C(F)(F)F)cs1` [Example 397, 7-Isopropoxy-2-(1-methyl-2-oxabicyclo[2.1.1]hexan-4-yl)-N-(4-(trifluoromethyl)thiazol-2-yl)imidazo[1,2-a]pyrimidine-6-carboxamide], the figure is 0.0134 µM. Still for that read-out and setting: as for `CC(C)Oc1cc2nc(C34CCC(C)(C3)OC4)cn2cc1C(=O)Nc1ccn(C)n1` (stereo not shown) [Example 414, 7-Isopropoxy-N-(1-methyl-1H-pyrazol-3-yl)-2-(1-methyl-2-oxabicyclo[2.2.1]heptan-4-yl)imidazo[1,2-a]pyridine-6-carboxamide], the figure is 0.0033 µM.

On to `CCn1cccc(NC(=O)c2cn3cc(C4CC4)nc3cc2OC(C)C)c1=O` [Example 480, 2-Cyclopropyl-N-(1-ethyl-2-oxo-1,2-dihydropyridin-3-yl)-7-isopropoxyimidazo[1,2-a]pyridine-6-carboxamide], for which it took 0.0075 µM to reach half-maximal inhibition (IC50). On the same count and under the same terms, as for `CCOc1nc(C(=O)Nc2cc(F)cn(C)c2=O)cn2cc([C@@H]3CCCOC3)nc12` (single isomer, unassigned) [Example 596], the figure is 0.0063 µM. On the same count and under the same terms, as for `CC(C)Oc1cc2nc(C34COC(C)(C3)C4)cn2cc1C(=O)Nc1ccnc(C(F)F)c1` [Example 258, N-(2-(difluoromethyl)pyridin-4-yl)-7-isopropoxy-2-(1-methyl-2-oxabicyclo[2.1.1]hexan-4-yl)imidazo[1,2-a]pyridine-6-carboxamide], the figure is 0.0596 µM. For the molecule `CCOc1cc(C(=O)Nc2cccc(C(F)F)n2)cn2cc(C3CCCOC3)nc12` (stereo not shown) [Example 52, N-(6-(difluoromethyl)pyridin-2-yl)-8-ethoxy-2-(tetrahydro-2H-pyran-3-yl)imidazo[1,2-a]pyridine-6-carboxamide], half-maximal inhibition (IC50) was put at 0.0075 µM. The same measure, in the same setting: as for `CC(C)Oc1nc2nc(C34COC(C)(C3)C4)cn2cc1C(=O)Nc1cccc(C2CC2)n1` [Example 387, N-(6-cyclopropylpyridin-2-yl)-7-isopropoxy-2-(1-methyl-2-oxabicyclo[2.1.1]hexan-4-yl)imidazo[1,2-a]pyrimidine-6-carboxamide], the figure is 0.0009 µM; as for `CC(C)Oc1cc2nc(C3CC3)cn2cc1C(=O)Nc1cccc(CC#N)n1` [Example 519, N-(6-(cyanomethyl)pyridin-2-yl)-2-cyclopropyl-7-isopropoxy-imidazo[1,2-a]pyridine-6-carboxamide], 0.003 µM; as for `Cn1ccc(NC(=O)c2cn3cc(C4CC4)nc3c(OC3CC3)n2)n1` [Example 281, 8-Cyclopropoxy-2-cyclopropyl-N-(1-methyl-1H-pyrazol-3-yl)imidazo[1,2-a]pyrazine-6-carboxamide], 0.0264 µM. Regarding `CCOc1nc(C(=O)Nc2cc(F)cnc2OC)cn2cc([C@@H]3CCCOC3)nc12` (single isomer, unassigned) [Example 594], the IC50 turned out to be 0.0056 µM.

With `CC(C)Oc1cc2nc([C@@]34CC[C@@](C)(C3)OC4)cn2cc1C(=O)Nc1cccc(C(F)F)n1` (single isomer, unassigned) [Example 609], the IC50 amounted to 0.0001 µM.

Regarding `CCOc1nc(C(=O)Nc2cc(F)cn(C)c2=O)cn2cc(C3CCCOC3)nc12` (stereo not shown) [Example 272, 8-Ethoxy-N-(5-fluoro-1-methyl-2-oxo-1,2-dihydropyridin-3-yl)-2-(tetrahydro-2H-pyran-3-yl)imidazo[1,2-a]pyrazine-6-carboxamide], the half-maximal inhibitory concentration (IC50) came to 0.0098 µM.

In the case of `CC(C)Oc1cc2nc(C34CCC(C)(C3)OC4)cn2cc1C(=O)Nc1cnn2cccnc12` (stereo not shown) [Example 417, 7-Isopropoxy-2-(1-methyl-2-oxabicyclo[2.2.1]heptan-4-yl)-N-(pyrazolo[1,5-a]pyrimidin-3-yl)imidazo[1,2-a]pyridine-6-carboxamide], the IC50 was 0.0002 µM. Take `CC(C)Oc1nc(C(=O)Nc2cccc(C(F)F)n2)cn2cc(C34COC(C)(C3)C4)nc12` [Example 336, N-(6-(difluoromethyl)pyridin-2-yl)-8-isopropoxy-2-(1-methyl-2-oxabicyclo[2.1.1]hexan-4-yl)imidazo[1,2-a]pyrazine-6-carboxamide]: it took 0.0021 µM to reach half-maximal inhibition (IC50).

Consider `Cn1ccc(NC(=O)c2cn3cc(C45COC(C)(C4)C5)nc3cc2OC2CC(C)(C)C2)n1` [Example 440, 7-(3,3-Dimethylcyclobutoxy)-N-(1-methyl-1H-pyrazol-3-yl)-2-(1-methyl-2-oxabicyclo[2.1.1]hexan-4-yl)imidazo[1,2-a]pyridine-6-carboxamide], for which the half-inhibitory concentration (IC50) is 0.0043 µM.

The same assay, now with this note: IRAK4 Biochemical Assay (1 mM ATP, 2 h) IC50 (μM), 1 mM ATP, 2 h, 100 pM IRAK4.
`CCOc1cc2nc(C3CCOCC3)cn2cc1C(=O)Nc1cccc(C2CCOC2)n1` (stereo not shown) [Example 391, 7-Ethoxy-2-(tetrahydro-2H-pyran-4-yl)-N-(6-(tetrahydrofuran-3-yl)pyridin-2-yl)imidazo[1,2-a]pyridine-6-carboxamide hydrochloride] displayed a half-inhibitory concentration (IC50) of 0.0034 µM. This counts as single-digit nanomolar. Still for that read-out and setting: as for `CC(C)(C)c1cn2cc(C(=O)Nc3cnn4cccnc34)c(OC3CCC3)cc2n1` [Example 266, 2-(tert-Butyl)-7-cyclobutoxy-N-(pyrazolo[1,5-a]pyrimidin-3-yl)imidazo[1,2-a]pyridine-6-carboxamide trifluoroacetate], the figure is 0.0013 µM; as for `CC(C)Oc1c(C(=O)Nc2cccc(C(F)(F)F)n2)cn2cc(C34COC(C)(C3)C4)nc2c1F` [Example 230, 8-Fluoro-7-isopropoxy-2-(1-methyl-2-oxabicyclo[2.1.1]hexan-4-yl)-N-(6-(trifluoromethyl)pyridin-2-yl)imidazo[1,2-a]pyridine-6-carboxamide trifluoroacetate], 0.003 µM.

Regarding `COc1cccc(NC(=O)c2cn3cc(C4CC4)nc3cc2OCC2CC3CCC2O3)n1` (stereo not shown) [Example 478, 7-((7-Oxabicyclo[2.2.1]heptan-2-yl)methoxy)-2-cyclopropyl-N-(6-methoxypyridin-2-yl)imidazo[1,2-a]pyridine-6-carboxamide], the IC50 was determined as 0.0055 µM. This IC50 lies about 1.8-fold higher than the previous one. The same measure, in the same setting: as for `CC12CC(c3cn4cc(C(=O)Nc5cccn(C(F)F)c5=O)c(OC5CC(C(F)F)C5)cc4n3)(CO1)C2` (stereo not shown) [Example 450, N-(1-(difluoromethyl)-2-oxo-1,2-dihydropyridin-3-yl)-7-(3-(difluoromethyl)cyclobutoxy)-2-(1-methyl-2-oxabicyclo[2.1.1]hexan-4-yl)imidazo[1,2-a]pyridine-6-carboxamide], the figure is 0.0003 µM. Still for that read-out and setting: as for `CCc1cccc(NC(=O)c2cn3cc(C45COC(CF)(C4)C5)nc3cc2OC)n1` [Example 58, N-(6-ethylpyridin-2-yl)-2-(1-(fluoromethyl)-2-oxabicyclo[2.1.1]hexan-4-yl)-7-methoxyimidazo[1,2-a]pyridine-6-carboxamide trifluoroacetate], the figure is 0.0105 µM.

The values are drawn from patent publication US20230087118A1, “IMIDAZO[1,2-a][sequence] DERIVATIVES AND THEIR USE IN THE TREATMENT OF DISEASE” (priority 2019, published 2023).
